Among the data in PubChem BioAssay (NCI) are TGI and GI50 values, retold here.

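Five compound concentrations were applied to cells in 96-well plates for 48 hours; endpoints were derived by simple linear interpolation of the resulting dose-response curve. Abbreviation: GI50, concentration required for 50% inhibition of growth. At the TGI there is no net growth.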

Some test systems named below: HOP-62 NSCLC; HT29 colon; OVCAR-5 ovarian; MDA-MB-231 breast; DU-145 prostate; SR leukemia; OVCAR-3 ovarian; COLO 205 colon; SNB-75 CNS; K-562 leukemia.
Common to all, as to experiment: inhibition of tumour cell growth, NCI panel, 48 h

Regarding `S=c1[nH]nc(SCc2ccccc2Cl)c2[nH]cnc12`, the TGI in the assay on HOP-62 NSCLC, in the assay with HT29 colon, with OVCAR-5 ovarian, in the assay on MDA-MB-231 breast, with DU-145 prostate and with SR leukemia was more than 100 µM in each case. Further, the TGI with OVCAR-3 ovarian, with COLO 205 colon, in the assay with SNB-75 CNS and in the assay with K-562 leukemia was more than 100 µM throughout.
Regarding `COc1cc(/C=C/c2cc(/C=C/c3ccc(O)c(OC)c3)[nH]c(=O)n2)ccc1O`, the GI50 in the assay on HOP-62 NSCLC was 4.11 µM; with HT29 colon it was 1.3 µM; in the assay on OVCAR-5 ovarian, 10 µM; in the assay with MDA-MB-231 breast, 3.59 µM; in the assay with DU-145 prostate, 4.91 µM; in the assay on SR leukemia it was 1.91 µM. The GI50 in the assay with OVCAR-3 ovarian was 3.8 µM; in the assay with COLO 205 colon, 2.03 µM; in the assay on SNB-75 CNS, 1.72 µM; with K-562 leukemia, 3.66 µM. For the same compound, the TGI in the assay on HOP-62 NSCLC was 17.6 µM; with HT29 colon it was 2.67 µM; in the assay on OVCAR-5 ovarian it was 28.4 µM; in the assay on MDA-MB-231 breast, more than 100 µM; in the assay with DU-145 prostate, 35.4 µM; in the assay on SR leukemia, 6.18 µM. Also, the TGI with OVCAR-3 ovarian came to 33.5 µM; with COLO 205 colon, 4.03 µM; in the assay on SNB-75 CNS, 12 µM; with K-562 leukemia, 35.8 µM.
Consider `COc1cc(CC2CC(c3ccc4c(c3)OCO4)OC2=O)cc(OC)c1OC` (centres undefined), for which the TGI in the assay with HOP-62 NSCLC, in the assay with HT29 colon, in the assay on OVCAR-5 ovarian, with MDA-MB-231 breast, with DU-145 prostate and with SR leukemia was more than 100 µM each time. Besides, the TGI with OVCAR-3 ovarian, in the assay on COLO 205 colon, with SNB-75 CNS and with K-562 leukemia was more than 100 µM each time.
As for `Cn1c(O)c(N=NC(N)=S)c2ccccc21`, the GI50 in the assay on HOP-62 NSCLC is 33.5 µM; with HT29 colon, more than 100 µM; with OVCAR-5 ovarian it was more than 100 µM; in the assay on MDA-MB-231 breast, more than 100 µM; in the assay on DU-145 prostate it was 53.7 µM; in the assay on SR leukemia, 90.1 µM. Also, the GI50 in the assay with OVCAR-3 ovarian is 33.4 µM; with COLO 205 colon it was 94.9 µM; with SNB-75 CNS, 18.3 µM; in the assay with K-562 leukemia, 95.2 µM. Besides, the TGI in the assay on HOP-62 NSCLC, in the assay on HT29 colon, with OVCAR-5 ovarian, with MDA-MB-231 breast, with DU-145 prostate and in the assay on SR leukemia was more than 100 µM in each case. Moreover, the TGI with OVCAR-3 ovarian was more than 100 µM; with COLO 205 colon, more than 100 µM; with SNB-75 CNS, 98 µM; in the assay with K-562 leukemia it was more than 100 µM.
Turning to `N#C/C(=C\c1cccnc1)c1nc2ccccc2o1`, the GI50 with HOP-62 NSCLC, with HT29 colon, in the assay with OVCAR-5 ovarian, in the assay with MDA-MB-231 breast, in the assay on DU-145 prostate and in the assay with SR leukemia was more than 100 µM in each case. For the same compound, the GI50 with OVCAR-3 ovarian, in the assay on COLO 205 colon, with SNB-75 CNS and in the assay on K-562 leukemia was more than 100 µM each time. Besides, the TGI in the assay on HOP-62 NSCLC, in the assay with HT29 colon, in the assay with OVCAR-5 ovarian, in the assay on MDA-MB-231 breast, with DU-145 prostate and in the assay on SR leukemia was more than 100 µM in each case. In addition, the TGI in the assay on OVCAR-3 ovarian, with COLO 205 colon, in the assay with SNB-75 CNS and in the assay with K-562 leukemia was more than 100 µM in each case.
As to `CCN(CC)CCOc1nc2cc(OC)c(OC)cc2c2c1-c1ccc(OC)cc1C2=O`, the GI50 in the assay on HOP-62 NSCLC is 10 µM; in the assay with HT29 colon, 1.67 µM; in the assay with OVCAR-5 ovarian it was 21.2 µM; in the assay on MDA-MB-231 breast, 13 µM; in the assay with DU-145 prostate, 5.56 µM; with SR leukemia, 0.583 µM. Besides, the GI50 with OVCAR-3 ovarian is 11.7 µM; with COLO 205 colon it was 11.5 µM; with SNB-75 CNS, 16.8 µM; with K-562 leukemia, 2.06 µM. Also, the TGI in the assay on HOP-62 NSCLC turned out to be 22.2 µM; in the assay with HT29 colon it was 3.11 µM; in the assay with OVCAR-5 ovarian it was 36.4 µM; with MDA-MB-231 breast, 26.9 µM; with DU-145 prostate, 18.3 µM; in the assay with SR leukemia, 3.4 µM. The TGI was 24 µM with OVCAR-3 ovarian, 24.6 µM with COLO 205 colon, 33.1 µM in the assay on SNB-75 CNS and 5.01 µM in the assay with K-562 leukemia.
`CC(C)N(Cc1ccccc1)S(=O)(=O)c1n[nH]c(C(C)(C)C)n1`: the TGI in the assay on HOP-62 NSCLC, in the assay on HT29 colon, with OVCAR-5 ovarian, in the assay with MDA-MB-231 breast, with DU-145 prostate and in the assay on SR leukemia was more than 100 µM each time. The TGI in the assay on OVCAR-3 ovarian, in the assay on COLO 205 colon, with SNB-75 CNS and in the assay with K-562 leukemia was more than 100 µM each time.
Turning to `O=C(Nc1ccc(-c2ccnc(Nc3ccc(N4CCOCC4)cc3)n2)cc1)C1CCCN1` (centres undefined), the GI50 with HOP-62 NSCLC was 5.16 µM; with HT29 colon, 3.89 µM; in the assay with OVCAR-5 ovarian it was 14.6 µM; in the assay on MDA-MB-231 breast, 7.77 µM; with DU-145 prostate, 7.14 µM; in the assay with OVCAR-3 ovarian, 9.43 µM. In addition, the GI50 in the assay on COLO 205 colon is 5.25 µM; with SNB-75 CNS it was 1.96 µM; with K-562 leukemia, 2 µM. Moreover, the TGI in the assay with HOP-62 NSCLC is 27.7 µM; in the assay with HT29 colon it was 23.3 µM; with OVCAR-5 ovarian it was 30.7 µM; in the assay with MDA-MB-231 breast it was 23.1 µM; with DU-145 prostate it was 37.4 µM; in the assay on SR leukemia, more than 25.6 µM. Also, the TGI with OVCAR-3 ovarian is 27.3 µM; in the assay on COLO 205 colon, 20.5 µM; with SNB-75 CNS, 12.5 µM; in the assay with K-562 leukemia it was more than 53.3 µM.
